From ChEMBL document CHEMBL4382205, “Tryptophan 2,3-dioxygenase inhibitory activities of tryptanthrin derivatives” (Eur J Med Chem, 2018)

Tests used:
[1] = molecular target: T1, Tryptophan 2,3-dioxygenase (Homo sapiens, UniProt P48775); assay: Inhibition of recombinant full length C-terminal His-tagged human TDO expressed in Escherichia coli using L-Trp as substrate after 30 mins
[2] = molecular target: T1, Tryptophan 2,3-dioxygenase; assay: Inhibition of TDO in human U87 MG cells using L-Trp as substrate after 8 hrs; type: cell-based, U-87MG ATCC
[3] = molecular target: T1, Tryptophan 2,3-dioxygenase; assay: Inhibition of TDO (unknown origin) expressed in HEK293 cells using L-Trp as substrate after 8 hrs; type: cell-based
[4] = molecular target: T1, Tryptophan 2,3-dioxygenase; assay: Uncompetitive inhibition of recombinant full length C-terminal His-tagged human TDO expressed in Escherichia coli using L-Trp as substrate after 30 mins by Dixon plot analysis
Homo sapiens = species on record: Homo sapiens; assay: Selectivity ratio of IC50 for IDO1 (unknown origin) to IC50 for recombinant full length C-terminal His-tagged human TDO
[5] = molecular target: T1, Tryptophan 2,3-dioxygenase; assay: Mixed type […] inhibition of recombinant full length C-terminal His-tagged human TDO expressed in Escherichia coli using L-Trp as substrate after 30 mins by Dixon plot analysis
[6] = molecular target: T1, Tryptophan 2,3-dioxygenase; assay: Inhibition of TDO (unknown origin)
[7] = molecular target: Indoleamine 2,3-dioxygenase 1 (Homo sapiens, UniProt P14902); assay: Inhibition of IDO1 (unknown origin)
Indoleamine 2,3-dioxygenase 1, sequence (P14902 whole entry): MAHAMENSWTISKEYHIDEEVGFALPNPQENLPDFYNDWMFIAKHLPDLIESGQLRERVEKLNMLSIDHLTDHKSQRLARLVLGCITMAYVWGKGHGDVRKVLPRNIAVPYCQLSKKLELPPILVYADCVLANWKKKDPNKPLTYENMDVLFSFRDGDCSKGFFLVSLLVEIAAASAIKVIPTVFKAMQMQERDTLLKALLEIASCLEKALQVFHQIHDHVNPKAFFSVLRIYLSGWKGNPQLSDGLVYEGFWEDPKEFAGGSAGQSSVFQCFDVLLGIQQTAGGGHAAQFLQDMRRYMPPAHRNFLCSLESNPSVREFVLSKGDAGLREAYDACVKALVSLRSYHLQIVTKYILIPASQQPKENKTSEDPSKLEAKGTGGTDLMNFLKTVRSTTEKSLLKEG

T1 sequence (P48775 whole entry): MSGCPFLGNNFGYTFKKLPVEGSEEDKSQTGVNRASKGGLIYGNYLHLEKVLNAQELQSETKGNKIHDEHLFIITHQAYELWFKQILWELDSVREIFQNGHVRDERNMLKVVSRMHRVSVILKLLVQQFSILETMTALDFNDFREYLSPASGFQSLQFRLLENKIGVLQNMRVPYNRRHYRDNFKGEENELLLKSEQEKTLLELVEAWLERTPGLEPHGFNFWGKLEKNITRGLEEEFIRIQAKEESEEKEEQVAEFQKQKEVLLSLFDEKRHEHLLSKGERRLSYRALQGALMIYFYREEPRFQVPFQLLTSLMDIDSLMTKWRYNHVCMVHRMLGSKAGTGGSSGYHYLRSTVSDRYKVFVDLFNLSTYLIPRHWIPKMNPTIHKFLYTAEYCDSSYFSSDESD

IC50 [1]	IC50 [2]	IC50 [3]	Ki [4]	Ratio IC50 (Homo sapiens)	Ki [5]	Ki [6]	Ki [7]	SMILES
937 nM	54 nM	53 nM	356 nM					O=C1c2cc(Br)ccc2-n2c1nc1ccccc1c2=O
44800 nM	227 nM	229 nM	8410 nM					O=C1c2c(Cl)cccc2-n2c1nc1ccccc1c2=O
3230 nM	184 nM	215 nM		38	834 nM			Cc1ccc2c(c1)C(=O)c1nc3ccccc3c(=O)n1-2
1490 nM	62 nM	59 nM			1000 nM			O=C1c2cc(F)ccc2-n2c1nc1ccc(F)cc1c2=O
101 nM	40 nM	61 nM	215 nM					O=C1c2cc([N+](=O)[O-])ccc2-n2c1nc1ccccc1c2=O
9810 nM	503 nM	241 nM		88	876 nM			O=C1c2ccccc2-n2c1nc1ccc(F)cc1c2=O
224000 nM	957 nM	733 nM			42700 nM			O=C1c2ccc(Cl)cc2-n2c1nc1ccccc1c2=O
937 nM	60 nM	68 nM	336 nM					O=C1c2cc(F)ccc2-n2c1nc1ccccc1c2=O
3940 nM	194 nM	140 nM	581 nM					O=C1c2ccccc2-n2c1nc1ccccc1c2=O [TRYPTANTHRIN]
						16000 nM	> 100000 nM	O=C1c2cc(O)c(O)cc2OC(c2ccc(O)c(O)c2)C1O (centres undefined)
64500 nM	260 nM	242 nM	21700 nM					NS(=O)(=O)NCCNc1nonc1C(=NO)Nc1ccc(F)c(Br)c1 [EPACADOSTAT]
